Measured values reported in patent publication US11124541B2, “Chimeric melanocortin ligands and methods of use thereof” (REGENTS OF THE UNIVERSITY OF MINNESOTA, priority 2016, dated 2021).
Entries after “also recorded” stand apart in the source; their conditions may differ. Non-standard residues stand in square brackets, D forms with d. Residues, ends and D or L forms follow the SMILES beside them. Dap = NC[C@H](N)C(=O)O

Assays:
mMC1R = mMC1R (Mus musculus, UniProt Q01727); assay: cAMP AlphaScreen agonist assay, HEK293 cells stably expressing mouse MC1R; conditions: for EC50: read-out: mMC1R EC50, agonist, cAMP
mMC5R = mMC5R (Mus musculus, UniProt P41149); assay: cAMP AlphaScreen agonist assay, HEK293 cells stably expressing mouse MC5R; conditions: for EC50: read-out: mMC5R EC50, agonist, cAMP
mMC3R = mMC3R (Mus musculus, UniProt P33033); assay: cAMP AlphaScreen agonist assay, HEK293 cells stably expressing mouse MC3R; conditions: for agonist activity/efficacy at mMC3R (in words): concentrations up to 100 μM; for EC50: read-out: mMC3R EC50, agonist, cAMP
mMC4R = mMC4R (Mus musculus, UniProt P56450); assay: cAMP AlphaScreen agonist assay, HEK293 cells stably expressing mouse MC4R; conditions: for agonist activity/efficacy at mMC4R (in words): concentrations up to 100 μM; for selectivity for the mMC4R over the mMC3R: agonist potency; for EC50: read-out: mMC4R EC50, agonist, cAMP
[1] = 100 μM, no EC50 determinable, relative to NDP-MSH

mMC5R, sequence (P41149 whole entry): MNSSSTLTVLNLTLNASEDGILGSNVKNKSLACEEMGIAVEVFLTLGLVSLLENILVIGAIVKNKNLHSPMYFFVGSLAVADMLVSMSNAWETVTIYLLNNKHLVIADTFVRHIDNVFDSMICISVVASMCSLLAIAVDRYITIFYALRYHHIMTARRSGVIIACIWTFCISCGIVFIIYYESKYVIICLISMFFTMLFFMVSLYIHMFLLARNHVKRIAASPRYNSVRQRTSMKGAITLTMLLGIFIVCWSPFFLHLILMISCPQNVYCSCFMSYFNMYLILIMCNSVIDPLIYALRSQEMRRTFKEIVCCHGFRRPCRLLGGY
mMC3R, sequence (P33033 whole entry): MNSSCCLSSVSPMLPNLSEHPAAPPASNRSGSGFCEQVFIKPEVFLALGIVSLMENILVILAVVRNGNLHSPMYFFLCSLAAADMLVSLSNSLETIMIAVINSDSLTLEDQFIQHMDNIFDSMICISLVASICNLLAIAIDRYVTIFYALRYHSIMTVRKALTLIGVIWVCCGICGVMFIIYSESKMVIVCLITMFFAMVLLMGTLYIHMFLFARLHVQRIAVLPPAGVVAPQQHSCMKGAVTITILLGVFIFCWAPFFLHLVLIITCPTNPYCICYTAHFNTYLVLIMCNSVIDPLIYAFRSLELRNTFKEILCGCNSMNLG
mMC4R, sequence (P56450 whole entry): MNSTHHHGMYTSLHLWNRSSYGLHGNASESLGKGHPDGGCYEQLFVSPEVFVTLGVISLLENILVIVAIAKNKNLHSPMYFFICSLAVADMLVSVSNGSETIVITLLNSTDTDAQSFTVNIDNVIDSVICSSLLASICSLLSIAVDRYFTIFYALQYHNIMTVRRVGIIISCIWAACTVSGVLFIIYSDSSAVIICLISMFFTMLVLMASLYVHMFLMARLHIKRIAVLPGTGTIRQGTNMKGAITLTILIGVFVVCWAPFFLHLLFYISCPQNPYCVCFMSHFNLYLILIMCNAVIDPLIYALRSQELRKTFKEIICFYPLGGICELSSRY
mMC1R, sequence (Q01727 whole entry): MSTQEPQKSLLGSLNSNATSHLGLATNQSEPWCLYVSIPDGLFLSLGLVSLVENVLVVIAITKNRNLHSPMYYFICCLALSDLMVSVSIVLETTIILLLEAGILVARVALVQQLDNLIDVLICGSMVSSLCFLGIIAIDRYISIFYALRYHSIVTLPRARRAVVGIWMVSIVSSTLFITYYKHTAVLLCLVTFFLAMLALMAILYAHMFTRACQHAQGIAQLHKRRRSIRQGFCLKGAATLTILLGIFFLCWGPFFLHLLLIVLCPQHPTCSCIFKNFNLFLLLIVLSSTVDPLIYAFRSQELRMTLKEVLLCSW

SMILES: N=C(N)NCCC[C@@H]1NC(=O)[C@@H](Cc2ccccc2)NC(=O)[C@@H]2CCCN2C(=O)[C@H]2CCCN2C(=O)[C@H](CN)NC(=O)[C@H](Cc2c[nH]c3ccccc23)NC1=O [MDE6-12-1c, c[Pro-DPhe-Arg-Trp-Dap-DPro]] (cyclo(P[dF]RW[Dap][dP]))
- mMC1R partial agonist, percent maximal NDP stimulation (mMC1R; PA, relative to maximal NDP-MSH response): PA, 75%
- selectivity for the mMC1R over the other receptors (mMC1R; over mMC3R, mMC4R, mMC5R): > 500 fold
- EC50 (mMC1R): 0.11 µM
- agonist activity/efficacy at mMC5R (in words) (mMC5R; concentrations up to 100 μM): no observable activity; also recorded: unable to stimulate; also recorded: no agonist activity
- agonist activity/efficacy at mMC3R (in words) (mMC3R): no observable activity; also recorded: did not possess agonist activity; also recorded: no agonist activity
- mMC4R percent maximal stimulatory response at 100 μM (mMC4R; [1]): 35%
- agonist activity/efficacy at mMC4R (in words) (mMC4R): stimulated a fraction of the maximal NDP-MSH response; also recorded: partially stimulated

SMILES: C[C@@H]1NC(=O)[C@H](CC(N)=O)NC(=O)[C@H](Cc2c[nH]c3ccccc23)NC(=O)[C@H](CCCNC(=N)N)NC(=O)[C@@H](Cc2ccccc2)NC(=O)[C@H](Cc2cnc[nH]2)NC(=O)[C@@H]2CCCN2C(=O)[C@H]2CCCN2C(=O)[C@H](Cc2ccccc2)NC1=O [MDE5-149-2c, c[Pro-His-DPhe-Arg-Trp-Asn-Ala-Phe-DPro]] (cyclo(H[dF]RWNAF[dP]P))
- EC50 (mMC1R): 0.00035 µM
- EC50 (mMC5R): 0.00045 µM
- EC50 (mMC3R): 0.032 µM
- selectivity for the mMC4R over the mMC3R (mMC4R): 23 fold
- EC50 (mMC4R): 0.0014 µM

SMILES: C[C@@H]1NC(=O)[C@H](CC(N)=O)NC(=O)[C@H](Cc2c[nH]c3ccccc23)NC(=O)[C@H](CCCNC(=N)N)NC(=O)[C@@H](Cc2ccccc2)NC(=O)[C@H](Cc2c[nH]cn2)NC(=O)[C@@H]2CCCN2C(=O)[C@H]2CCCN2C1=O [MDE6-3-2c, c[Pro-His-DPhe-Arg-Trp-Asn-Ala-DPro]] (cyclo(PH[dF]RWNA[dP]))
- decreased agonist potency at mMC1R relative to MDE5-149-2c (mMC1R): 34 fold
- decreased agonist potency at mMC5R relative to MDE5-149-2c (mMC5R): 5 fold
- EC50 (mMC3R): 0.3 µM
- decreased agonist potency at mMC3R relative to MDE5-149-2c (mMC3R; relative to MDE5-149-2c): 9 fold
- decreased agonist potency at mMC4R relative to MDE5-149-2c (mMC4R): 21 fold

SMILES: C[C@@H]1NC(=O)[C@H](CC(N)=O)NC(=O)[C@H](Cc2c[nH]c3ccccc23)NC(=O)[C@H](CCCNC(=N)N)NC(=O)[C@@H](Cc2ccccc2)NC(=O)[C@@H]2CCCN2C(=O)[C@H]2CCCN2C1=O [MDE6-3-1c, c[Pro-DPhe-Arg-Trp-Asn-Ala-DPro]] (cyclo(P[dF]RWNA[dP]))
- mMC3R percent maximal stimulatory response at 100 μM (mMC3R; [1]): 55% @
- agonist activity/efficacy at mMC3R (in words) (mMC3R): partially stimulated
- selectivity for the mMC4R over the mMC3R (mMC4R): > 100 fold

SMILES: C[C@@H]1NC(=O)[C@H](CN)NC(=O)[C@H](Cc2c[nH]c3ccccc23)NC(=O)[C@H](CCCNC(=N)N)NC(=O)[C@@H](Cc2ccccc2)NC(=O)[C@@H]2CCCN2C(=O)[C@H]2CCCN2C(=O)[C@H](Cc2ccccc2)NC1=O [MDE5-151-1c, c[Pro-DPhe-Arg-Trp-Dap-Ala-Phe-DPro]] (cyclo(P[dF]RW[Dap]AF[dP]))
- agonist activity/efficacy at mMC1R (in words) (mMC1R; concentrations up to 100 μM): partial agonist
- EC50 (mMC1R): 0.19 µM
- EC50 (mMC5R): 0.046 ± 0.006 µM
- agonist activity/efficacy at mMC3R (in words) (mMC3R): partial agonist
- EC50 (mMC3R): 3 µM
- agonist activity/efficacy at mMC4R (in words) (mMC4R): full agonist
- EC50 (mMC4R): 0.1 µM

SMILES: C[C@@H]1NC(=O)[C@H](CC(N)=O)NC(=O)[C@H](Cc2c[nH]c3ccccc23)NC(=O)[C@H](CCCNC(=N)N)NC(=O)[C@@H](Cc2ccccc2)NC(=O)[C@@H]2CCCN2C(=O)[C@H]2CCCN2C(=O)[C@H](Cc2ccccc2)NC1=O [MDE5-149-1c, c[Pro-DPhe-Arg-Trp-Asn-Ala-Phe-DPro]] (cyclo(P[dF]RWNAF[dP]))
- EC50 (mMC1R): 0.4 ± 0.2 µM
- decreased agonist potency at mMC1R relative to MDE5-149-2c (mMC1R): 1140 fold
- EC50 (mMC5R): 0.04 ± 0.01 µM
- decreased agonist potency at mMC5R relative to MDE5-149-2c (mMC5R): 90 fold
- agonist activity/efficacy at mMC3R (in words) (mMC3R): partially stimulated
- EC50 (mMC4R): 0.13 ± 0.07 µM
- decreased agonist potency at mMC4R relative to MDE5-149-2c (mMC4R): 90 fold

SMILES: N=C(N)NCCC[C@@H]1NC(=O)[C@@H](Cc2ccccc2)NC(=O)[C@@H]2CCCN2C(=O)[C@H]2CCCN2C(=O)[C@H](Cc2c[nH]c3ccccc23)NC1=O [MDE5-147-1c, c[Pro-DPhe-Arg-Trp-DPro]] (cyclo(P[dF]RW[dP]))
- EC50 (mMC1R): 1.8 µM
- mMC5R percent maximal stimulatory response at 100 μM (mMC5R; [1]): 75% @
- agonist activity/efficacy at mMC4R (in words) (mMC4R): stimulated a fraction of the maximal NDP-MSH response
